Assay results: patent US20250302080A1, “SWEETNESS AND/OR FLAVOR ENHANCER” (AJINOMOTO CO., INC., priority 2022, published 2025)

How the values were obtained:
[1] = Sensory evaluation of sweetness intensity in RebA solution, four reference samples (Experimental Examples 17-19); conditions: for concentration at which a sweetness-enhancing effect was confirmed: added alone, 3.0 points or more
Experimental: A negative control RebA solution (0.073 wt % RebA solution) was prepared by dissolving RebA in filtered water.
(§1) A sensory evaluation of sweetness intensity was performed for each sample by a panel of four experts according to the following evaluation criteria.
Sweetness intensity was evaluated by 0.0 to 10.0 points based on the following reference samples (negative control (hereinafter referred to as NC) (0.0 point); reference 1 (hereinafter referred to as R1) (3.2 points), reference 2 (hereinafter referred to as R2) (5.0 points); reference 3 (hereinafter referred to as R3) (10.0 points)). The average score (rounded to two decimal places) of each expert panelist was calculated. An average score of 3.0 points or more was considered to be functional. • NC (0.0 point): 0.073 wt % RebA solution (solvent: filtered water) • R1 (3.2 points): 0.073 wt % RebA solution (solvent: filtered water)+decanoic acid (10 ppb) • R2 (5.0 points): 0.077 wt % RebA solution (solvent: filtered water) • R3 (10.0 points): 0.080 wt % RebA solution (solvent: filtered water)
A sensory evaluation of sweetness intensity was performed for each sample by a panel of four experts according to the same evaluation criteria as in Experimental Example 17.

[2] = Sensory evaluation of sweetness intensity in RebM solution (Experimental Examples 20-21)
Experimental: A negative control RebM solution (0.063 wt % RebM solution) was prepared by dissolving RebM in filtered water.
as §1
Sweetness intensity was evaluated by 0.0 to 10.0 points based on the following reference samples (negative control (hereinafter referred to as NC) (0.0 point); reference 1 (hereinafter referred to as R1) (3.0 points), reference 2 (hereinafter referred to as R2) (5.0 points); reference 3 (hereinafter referred to as R3) (10.0 points)). The average score (rounded to two decimal places) of each expert panelist was calculated. An average score of 3.0 points or more was considered to be functional. • NC (0.0 point): 0.063 wt % RebM solution (solvent: filtered water) • R1 (3.0 points): 0.063 wt % RebM solution (solvent: filtered water)+dodecanoic acid (1 ppb) • R2 (5.0 points): 0.066 wt % RebM solution (solvent: filtered water) • R3 (10.0 points): 0.069 wt % RebM solution (solvent: filtered water)
A sensory evaluation of sweetness intensity was performed for each sample by a panel of four experts according to the same evaluation criteria as in Experimental Example 20.

[3] = Sensory evaluation of sweetness intensity in aspartame solution, four reference samples (Experimental Example 22)
Experimental: A negative control aspartame solution (0.063 wt % aspartame solution) was prepared by dissolving aspartame in filtered water.
as §1
Sweetness intensity was evaluated by 0.0 to 10.0 point based on the following reference samples (negative control (hereinafter referred to as NC) (0.0 point); reference 1 (hereinafter referred to as R1) (3.2 points), reference 2 (hereinafter referred to as R2) (5.0 points); reference 3 (hereinafter referred to as R3) (10.0 points)). The average score (rounded to two decimal places) of each expert panelist was calculated. An average score of 3.0 points or more was considered to be functional. • NC (0.0 point): 0.063 wt % aspartame solution (solvent: filtered water) • R1 (3.2 points): 0.063 wt % aspartame solution (solvent: filtered water)+decanoic acid (10 ppb) • R2 (5.0 points): 0.066 wt % aspartame solution (solvent: filtered water) • R3 (10.0 points): 0.069 wt % aspartame solution (solvent: filtered water)

[4] = Sensory evaluation of sweetness intensity in sucralose solution (Experimental Examples 23-24); conditions: for sweetness intensity: average score; for concentration at which a sweetness-enhancing effect was confirmed: sucralose solution, added alone, 3.0 points or more
Experimental: A negative control sucralose solution (0.0140 wt % sucralose solution) was prepared by dissolving sucralose in filtered water.
as §1
Sweetness intensity was evaluated by 0.0 to 10.0 point based on the following reference samples (negative control (hereinafter referred to as NC) (0.0 point); reference 1 (hereinafter referred to as R1) (3.0 points), reference 2 (hereinafter referred to as R2) (5.0 points); reference 3 (hereinafter referred to as R3) (10.0 points)). The average score (rounded to two decimal places) of each expert panelist was calculated. An average score of 3.0 points or more was considered to be functional. • NC (0.0 point): 0.0140 wt % sucralose solution (solvent: filtered water) • R1 (3.0 points): 0.0164 wt % sucralose solution (solvent: filtered water) • R2 (5.0 points): 0.0180 wt % sucralose solution (solvent: filtered water) • R3 (10.0 points): 0.0220 wt % sucralose solution (solvent: filtered water)
A sensory evaluation of sweetness intensity was performed for each sample by a panel of four experts according to the same evaluation criteria as in Experimental Example 23.

[5] = added alone at 0.001 ppb to 0.0140 wt % sucralose solution
[6] = added alone at 0.01 ppb to 0.0140 wt % sucralose solution
[7] = added alone at 0.1 ppb to 0.0140 wt % sucralose solution
[8] = added alone at 1 ppb to 0.0140 wt % sucralose solution
[9] = added alone at 10 ppb to 0.0140 wt % sucralose solution
[10] = added alone at 100 ppb to 0.0140 wt % sucralose solution
[11] = added alone at 1000 ppb to 0.0140 wt % sucralose solution
[12] = added alone at 10000 ppb to 0.0140 wt % sucralose solution

CCCCCCCCCCCC(=O)O [dodecanoic acid]
sweetness intensity ([1]; acid added alone at 0.001 ppb): 0.6 points
sweetness intensity ([1]; acid added alone at 0.01 ppb): 1.3 points
sweetness intensity ([1]; acid added alone at 0.1 ppb): 2.3 points
sweetness intensity ([1]; acid added alone at 1 ppb): 4.2 points
sweetness intensity ([1]; acid added alone at 10 ppb): 5.0 points
sweetness intensity ([1]; acid added alone at 100 ppb): 5.7 points
sweetness intensity ([1]; acid added alone at 1000 ppb): 6.0 points
sweetness intensity ([1]; acid added alone at 10000 ppb): 6.0 points
concentration at which a sweetness-enhancing effect was confirmed [1]: ≥ 1 ppb
sweetness intensity ([2]; acid added alone at 0.001 ppb): 0.8 points
sweetness intensity ([2]; acid added alone at 0.01 ppb): 1.7 points
sweetness intensity ([2]; acid added alone at 0.1 ppb): 2.5 points
sweetness intensity ([2]; acid added alone at 1 ppb): 3.0 points
sweetness intensity ([2]; acid added alone at 10 ppb): 5.0 points
sweetness intensity ([2]; acid added alone at 100 ppb): 4.6 points
sweetness intensity ([2]; acid added alone at 1000 ppb): 4.7 points
sweetness intensity ([2]; acid added alone at 10000 ppb): 4.8 points
sweetness intensity ([3]; acid added alone at 0.001 ppb): 1.7 points
sweetness intensity ([3]; acid added alone at 0.01 ppb): 2.2 points
sweetness intensity ([3]; acid added alone at 0.1 ppb): 2.7 points
sweetness intensity ([3]; acid added alone at 1 ppb): 3.3 points
sweetness intensity ([3]; acid added alone at 10 ppb): 4.2 points
sweetness intensity ([3]; acid added alone at 100 ppb): 4.9 points
sweetness intensity ([3]; acid added alone at 1000 ppb): 5.5 points
sweetness intensity ([3]; acid added alone at 10000 ppb): 6.1 points
sweetness intensity [4, 5]: 1.0 points
sweetness intensity [4, 6]: 1.6 points
sweetness intensity [4, 7]: 2.0 points
sweetness intensity [4, 8]: 2.5 points
sweetness intensity [4, 9]: 3.0 points
sweetness intensity [4, 10]: 3.5 points
sweetness intensity [4, 11]: 3.9 points
sweetness intensity [4, 12]: 3.7 points
concentration at which a sweetness-enhancing effect was confirmed [4]: ≥ 10 ppb

CCCCCCCCCCC(=O)O [undecanoic acid]
sweetness intensity ([1]; acid added alone at 0.001 ppb): 0.3 points
sweetness intensity ([1]; acid added alone at 0.01 ppb): 1.9 points
sweetness intensity ([1]; acid added alone at 0.1 ppb): 3.5 points
sweetness intensity ([1]; acid added alone at 1 ppb): 4.5 points
sweetness intensity ([1]; acid added alone at 10 ppb): 5.4 points
sweetness intensity ([1]; acid added alone at 100 ppb): 6.0 points
sweetness intensity ([1]; acid added alone at 1000 ppb): 6.2 points
sweetness intensity ([1]; acid added alone at 10000 ppb): 5.7 points
concentration at which a sweetness-enhancing effect was confirmed [1]: ≥ 0.1 ppb
sweetness intensity ([2]; acid added alone at 0.001 ppb): 1.3 points
sweetness intensity ([2]; acid added alone at 0.01 ppb): 2.0 points
sweetness intensity ([2]; acid added alone at 0.1 ppb): 2.4 points
sweetness intensity ([2]; acid added alone at 1 ppb): 2.9 points
sweetness intensity ([2]; acid added alone at 10 ppb): 3.3 points
sweetness intensity ([2]; acid added alone at 100 ppb): 3.9 points
sweetness intensity ([2]; acid added alone at 1000 ppb): 4.4 points
sweetness intensity ([2]; acid added alone at 10000 ppb): 4.1 points
sweetness intensity ([3]; acid added alone at 0.001 ppb): 1.3 points
sweetness intensity ([3]; acid added alone at 0.01 ppb): 2.1 points
sweetness intensity ([3]; acid added alone at 0.1 ppb): 2.8 points
sweetness intensity ([3]; acid added alone at 1 ppb): 3.2 points
sweetness intensity ([3]; acid added alone at 10 ppb): 3.8 points
sweetness intensity ([3]; acid added alone at 100 ppb): 4.1 points
sweetness intensity ([3]; acid added alone at 1000 ppb): 4.7 points
sweetness intensity ([3]; acid added alone at 10000 ppb): 5.5 points
sweetness intensity [4, 5]: 0.9 points
sweetness intensity [4, 6]: 1.3 points
sweetness intensity [4, 7]: 1.7 points
sweetness intensity [4, 8]: 2.1 points
sweetness intensity [4, 9]: 2.8 points
sweetness intensity [4, 10]: 3.1 points
sweetness intensity [4, 11]: 3.4 points
sweetness intensity [4, 12]: 3.2 points

CCCCCCCCC(=O)O [nonanoic acid]
sweetness intensity ([1]; acid added alone at 0.001 ppb): 0.7 points
sweetness intensity ([1]; acid added alone at 0.01 ppb): 1.0 points
sweetness intensity ([1]; acid added alone at 0.1 ppb): 1.8 points
sweetness intensity ([1]; acid added alone at 1 ppb): 2.8 points
sweetness intensity ([1]; acid added alone at 10 ppb): 3.3 points
sweetness intensity ([1]; acid added alone at 100 ppb): 4.0 points
sweetness intensity ([1]; acid added alone at 1000 ppb): 4.8 points
sweetness intensity ([1]; acid added alone at 10000 ppb): 4.4 points
concentration at which a sweetness-enhancing effect was confirmed [1]: ≥ 10 ppb
sweetness intensity ([2]; acid added alone at 0.001 ppb): 0.9 points
sweetness intensity ([2]; acid added alone at 0.01 ppb): 1.4 points
sweetness intensity ([2]; acid added alone at 0.1 ppb): 2.1 points
sweetness intensity ([2]; acid added alone at 1 ppb): 2.8 points
sweetness intensity ([2]; acid added alone at 10 ppb): 3.3 points
sweetness intensity ([2]; acid added alone at 100 ppb): 4.1 points
sweetness intensity ([2]; acid added alone at 1000 ppb): 4.8 points
sweetness intensity ([2]; acid added alone at 10000 ppb): 4.8 points
sweetness intensity ([3]; acid added alone at 0.001 ppb): 0.8 points
sweetness intensity ([3]; acid added alone at 0.01 ppb): 2.0 points
sweetness intensity ([3]; acid added alone at 0.1 ppb): 2.7 points
sweetness intensity ([3]; acid added alone at 1 ppb): 3.4 points
sweetness intensity ([3]; acid added alone at 10 ppb): 4.5 points
sweetness intensity ([3]; acid added alone at 100 ppb): 4.9 points
sweetness intensity ([3]; acid added alone at 1000 ppb): 5.4 points
sweetness intensity ([3]; acid added alone at 10000 ppb): 5.9 points
sweetness intensity [4, 5]: 1.3 points
sweetness intensity [4, 6]: 1.8 points
sweetness intensity [4, 7]: 2.4 points
sweetness intensity [4, 8]: 3.0 points
sweetness intensity [4, 9]: 3.5 points
sweetness intensity [4, 10]: 3.9 points
sweetness intensity [4, 11]: 4.3 points
sweetness intensity [4, 12]: 4.2 points
concentration at which a sweetness-enhancing effect was confirmed [4]: ≥ 1 ppb

CCCCCCCC(=O)O [octanoic acid]
sweetness intensity ([1]; acid added alone at 0.001 ppb): 0.3 points
sweetness intensity ([1]; acid added alone at 0.01 ppb): 0.4 points
sweetness intensity ([1]; acid added alone at 0.1 ppb): 0.9 points
sweetness intensity ([1]; acid added alone at 1 ppb): 1.3 points
sweetness intensity ([1]; acid added alone at 10 ppb): 2.0 points
sweetness intensity ([1]; acid added alone at 100 ppb): 2.6 points
sweetness intensity ([1]; acid added alone at 1000 ppb): 3.7 points
sweetness intensity ([1]; acid added alone at 10000 ppb): 4.0 points
concentration at which a sweetness-enhancing effect was confirmed [1]: ≥ 1000 ppb
sweetness intensity ([2]; acid added alone at 0.001 ppb): 1.1 points
sweetness intensity ([2]; acid added alone at 0.01 ppb): 1.8 points
sweetness intensity ([2]; acid added alone at 0.1 ppb): 2.7 points
sweetness intensity ([2]; acid added alone at 1 ppb): 3.3 points
sweetness intensity ([2]; acid added alone at 10 ppb): 4.3 points
sweetness intensity ([2]; acid added alone at 100 ppb): 4.3 points
sweetness intensity ([2]; acid added alone at 1000 ppb): 4.4 points
sweetness intensity ([2]; acid added alone at 10000 ppb): 4.3 points
sweetness intensity ([3]; acid added alone at 0.001 ppb): 0.6 points
sweetness intensity ([3]; acid added alone at 0.01 ppb): 1.4 points
sweetness intensity ([3]; acid added alone at 0.1 ppb): 2.2 points
sweetness intensity ([3]; acid added alone at 1 ppb): 2.9 points
sweetness intensity ([3]; acid added alone at 10 ppb): 3.4 points
sweetness intensity ([3]; acid added alone at 100 ppb): 3.9 points
sweetness intensity ([3]; acid added alone at 1000 ppb): 4.3 points
sweetness intensity ([3]; acid added alone at 10000 ppb): 4.6 points
concentration at which a sweetness-enhancing effect was confirmed ([3]; added alone, 3.0 points or more): ≥ 10 ppb
sweetness intensity [4, 5]: 0.5 points
sweetness intensity [4, 6]: 1.3 points
sweetness intensity [4, 7]: 1.8 points
sweetness intensity [4, 8]: 2.3 points
sweetness intensity [4, 9]: 2.9 points
sweetness intensity [4, 10]: 3.3 points
sweetness intensity [4, 11]: 4.0 points
sweetness intensity [4, 12]: 4.5 points
